# Read-outs that look alike come from different tables or passages of the source.
# Assays:
# Assay in all cases: KINOMEscan in vitro binding to 468 labeled protein kinases
# [1] = target: T1, protein kinases (Homo sapiens, UniProt P00519, Q252H); conditions: read-out: Test compound/solvent control (%); for remaining binding at 0.001 µM: 1 nM; for remaining binding at 0.01 µM: 10 nM; for remaining binding at 1 µM: 1000 nM
# T1 construct: purchased Discovery X company (USA), KINOMEscan screening platform
# Outline: (§1)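 Duplicate in vitro binding reactions at 1 nM, 10 nM and 1000 nM compound against a panel of 468 labelled protein kinases (KINOMEscan). Binding expressed relative to solvent control as a percentage, stronger affinity giving a lower value.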
# [2] = target: T2, protein kinases (Homo sapiens, UniProt P10721, A829P); conditions: KIT(A829P), read-out: Test compound/solvent control (%)
# T2 construct: purchased Discovery X company (USA), KINOMEscan screening platform
# T2 sequence (P10721 26-976 A829P): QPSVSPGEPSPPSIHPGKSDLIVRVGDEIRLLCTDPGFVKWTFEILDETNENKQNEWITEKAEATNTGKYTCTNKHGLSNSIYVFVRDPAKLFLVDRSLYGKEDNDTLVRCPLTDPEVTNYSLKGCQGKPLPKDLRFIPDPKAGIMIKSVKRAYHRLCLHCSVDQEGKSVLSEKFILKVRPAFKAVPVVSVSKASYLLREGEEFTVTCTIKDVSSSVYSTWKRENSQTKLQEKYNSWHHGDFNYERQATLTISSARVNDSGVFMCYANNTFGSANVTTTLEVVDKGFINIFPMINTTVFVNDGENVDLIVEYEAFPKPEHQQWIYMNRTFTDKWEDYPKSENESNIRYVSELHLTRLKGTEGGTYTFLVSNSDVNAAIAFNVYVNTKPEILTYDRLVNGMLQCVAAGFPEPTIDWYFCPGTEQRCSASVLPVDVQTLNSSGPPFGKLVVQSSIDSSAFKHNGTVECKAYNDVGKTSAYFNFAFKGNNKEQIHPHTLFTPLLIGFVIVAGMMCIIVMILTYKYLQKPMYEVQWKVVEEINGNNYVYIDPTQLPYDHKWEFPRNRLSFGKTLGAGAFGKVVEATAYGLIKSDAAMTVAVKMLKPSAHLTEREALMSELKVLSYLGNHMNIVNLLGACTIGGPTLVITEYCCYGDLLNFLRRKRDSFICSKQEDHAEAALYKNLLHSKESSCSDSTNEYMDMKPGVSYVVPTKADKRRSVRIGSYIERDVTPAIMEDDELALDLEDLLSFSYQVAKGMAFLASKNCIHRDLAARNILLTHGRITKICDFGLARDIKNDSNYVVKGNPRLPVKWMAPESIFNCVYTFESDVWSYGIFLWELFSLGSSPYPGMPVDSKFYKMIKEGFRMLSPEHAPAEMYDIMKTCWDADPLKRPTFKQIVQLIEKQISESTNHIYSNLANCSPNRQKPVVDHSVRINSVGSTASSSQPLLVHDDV
# Outline: as §1
# [3] = target: T3, protein kinases (Homo sapiens, UniProt P00519, M351T); conditions: ABL1(M351T)-phosphorylated, read-out: Test compound/solvent control (%)
# T3 construct: purchased Discovery X company (USA), KINOMEscan screening platform
# Outline: as §1
# [4] = target: T4, protein kinases (Homo sapiens, UniProt P30530); conditions: AXL, read-out: Test compound/solvent control (%)
# T4 construct: purchased Discovery X company (USA), KINOMEscan screening platform
# T4 sequence (P30530 26-894): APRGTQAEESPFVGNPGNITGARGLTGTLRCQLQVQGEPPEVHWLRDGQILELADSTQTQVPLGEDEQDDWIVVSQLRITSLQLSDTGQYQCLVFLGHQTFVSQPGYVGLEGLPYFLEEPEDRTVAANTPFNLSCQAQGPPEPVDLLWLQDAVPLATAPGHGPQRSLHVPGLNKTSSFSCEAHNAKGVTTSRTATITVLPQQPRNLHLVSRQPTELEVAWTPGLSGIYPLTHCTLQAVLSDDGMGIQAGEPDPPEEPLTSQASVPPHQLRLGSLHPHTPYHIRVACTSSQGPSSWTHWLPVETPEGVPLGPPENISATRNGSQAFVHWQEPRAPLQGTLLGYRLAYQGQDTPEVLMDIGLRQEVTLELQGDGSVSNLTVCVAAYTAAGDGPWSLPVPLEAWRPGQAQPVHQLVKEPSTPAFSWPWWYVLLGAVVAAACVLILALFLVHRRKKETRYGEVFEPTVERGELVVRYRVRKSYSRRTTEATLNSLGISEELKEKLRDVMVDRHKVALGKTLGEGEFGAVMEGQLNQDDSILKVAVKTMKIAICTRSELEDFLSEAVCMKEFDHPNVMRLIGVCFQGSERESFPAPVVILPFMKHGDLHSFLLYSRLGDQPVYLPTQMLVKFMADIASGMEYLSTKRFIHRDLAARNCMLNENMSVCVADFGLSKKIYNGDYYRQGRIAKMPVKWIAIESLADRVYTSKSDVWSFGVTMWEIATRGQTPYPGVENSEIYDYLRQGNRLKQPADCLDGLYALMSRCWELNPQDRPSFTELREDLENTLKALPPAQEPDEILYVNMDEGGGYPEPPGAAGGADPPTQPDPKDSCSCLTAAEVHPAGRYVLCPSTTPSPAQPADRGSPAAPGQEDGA
# Outline: as §1
# [5] = target: T5, protein kinases (Homo sapiens, UniProt P06241); conditions: FYN, read-out: Test compound/solvent control (%)
# T5 construct: purchased Discovery X company (USA), KINOMEscan screening platform
# T5 sequence (P06241 whole entry): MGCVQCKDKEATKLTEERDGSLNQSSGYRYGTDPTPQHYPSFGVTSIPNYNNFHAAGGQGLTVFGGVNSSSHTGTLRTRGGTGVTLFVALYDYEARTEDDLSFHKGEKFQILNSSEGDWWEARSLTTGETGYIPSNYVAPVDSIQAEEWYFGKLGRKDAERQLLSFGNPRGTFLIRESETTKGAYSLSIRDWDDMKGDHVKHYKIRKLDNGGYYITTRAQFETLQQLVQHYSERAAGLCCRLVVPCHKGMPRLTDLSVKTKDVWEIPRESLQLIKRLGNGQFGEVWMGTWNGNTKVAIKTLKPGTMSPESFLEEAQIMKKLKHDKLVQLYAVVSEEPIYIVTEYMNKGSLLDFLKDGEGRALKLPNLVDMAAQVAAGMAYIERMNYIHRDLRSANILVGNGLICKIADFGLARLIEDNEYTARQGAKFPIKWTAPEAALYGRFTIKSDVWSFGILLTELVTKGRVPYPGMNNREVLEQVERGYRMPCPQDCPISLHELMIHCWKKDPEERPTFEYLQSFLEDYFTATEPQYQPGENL
# Outline: as §1
# [6] = target: T6, protein kinases (Homo sapiens, UniProt P00519, F317I); conditions: read-out: Test compound/solvent control (%); for remaining binding at 0.001 µM: 1 nM; for remaining binding at 0.01 µM: 10 nM; for remaining binding at 1 µM: 1000 nM
# T6 construct: purchased Discovery X company (USA), KINOMEscan screening platform
# Outline: as §1
# [7] = target: T7, protein kinases (Homo sapiens, UniProt Q16620); conditions: TRKB (NTRK2), read-out: Test compound/solvent control (%)
# T7 construct: purchased Discovery X company (USA), KINOMEscan screening platform
# T7 sequence (Q16620 32-822): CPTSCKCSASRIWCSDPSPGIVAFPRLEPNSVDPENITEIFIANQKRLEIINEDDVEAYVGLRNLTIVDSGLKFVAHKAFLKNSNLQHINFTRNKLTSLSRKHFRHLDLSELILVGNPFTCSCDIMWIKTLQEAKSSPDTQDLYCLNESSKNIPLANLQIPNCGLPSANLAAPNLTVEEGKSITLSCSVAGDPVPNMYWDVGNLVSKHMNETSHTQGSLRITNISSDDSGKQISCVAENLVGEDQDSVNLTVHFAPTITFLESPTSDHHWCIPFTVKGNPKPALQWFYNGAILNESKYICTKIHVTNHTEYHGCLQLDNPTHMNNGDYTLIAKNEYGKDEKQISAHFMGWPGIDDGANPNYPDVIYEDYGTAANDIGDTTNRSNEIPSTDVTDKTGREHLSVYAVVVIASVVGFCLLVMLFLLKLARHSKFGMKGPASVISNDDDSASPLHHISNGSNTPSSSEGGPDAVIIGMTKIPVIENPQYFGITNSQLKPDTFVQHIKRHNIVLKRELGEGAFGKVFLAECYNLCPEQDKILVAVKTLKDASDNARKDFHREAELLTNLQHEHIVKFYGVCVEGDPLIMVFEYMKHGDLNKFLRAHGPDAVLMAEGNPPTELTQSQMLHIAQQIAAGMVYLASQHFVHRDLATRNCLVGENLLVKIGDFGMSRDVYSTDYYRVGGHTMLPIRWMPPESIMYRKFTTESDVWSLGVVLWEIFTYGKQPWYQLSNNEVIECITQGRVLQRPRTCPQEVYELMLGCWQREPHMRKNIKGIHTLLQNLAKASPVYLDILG
# Outline: as §1
# [8] = target: T8, protein kinases (Homo sapiens, UniProt P00519, E255K); conditions: ABL1(E255K)-phosphorylated, read-out: Test compound/solvent control (%)
# T8 construct: purchased Discovery X company (USA), KINOMEscan screening platform
# Outline: as §1
# [9] = target: T9, protein kinases (Homo sapiens, UniProt P00519, F317L); conditions: read-out: Test compound/solvent control (%); for remaining binding at 0.001 µM: 1 nM; for remaining binding at 0.01 µM: 10 nM; for remaining binding at 1 µM: 1000 nM
# T9 construct: purchased Discovery X company (USA), KINOMEscan screening platform
# Outline: as §1
smiles,measurement,setting,value
"COCCOc1cc2nccc(Oc3ccc(NC(=O)Nc4cc(C(C)(C)C)n[nH]4)c(Cl)c3)c2cc1NC(C)=O [Compound 66, N-[4-{4-[3-(5-tert-butyl-2H-pyrazol-3-yl)-ureido]-3-chloro-phenoxy}-7-(2-methoxy-ethoxy)-quinolin-6-yl]-acetamide]",remaining binding at 0.001 µM,[1]; ABL1(Q252H)-phosphorylated,71%
same,remaining binding at 0.01 µM,[1]; ABL1(Q252H)-phosphorylated,12%
same,remaining binding at 1 µM,[1]; ABL1(Q252H)-phosphorylated,0.15%
same,remaining binding at 0.001 µM,[1]; ABL1(Q252H)-unphosphorylated,48%
same,remaining binding at 0.01 µM,[1]; ABL1(Q252H)-unphosphorylated,7.8%
same,remaining binding at 1 µM,[1]; ABL1(Q252H)-unphosphorylated,0%
same,remaining binding at 0.001 µM,[2]; 1 nM,84%
same,remaining binding at 0.01 µM,[2]; 10 nM,22%
same,remaining binding at 1 µM,[2]; 1000 nM,0%
same,remaining binding at 0.001 µM,[3]; 1 nM,100%
same,remaining binding at 0.01 µM,[3]; 10 nM,22%
same,remaining binding at 1 µM,[3]; 1000 nM,0.65%
same,remaining binding at 0.001 µM,[4]; 1 nM,53%
same,remaining binding at 0.01 µM,[4]; 10 nM,7.2%
same,remaining binding at 1 µM,[4]; 1000 nM,4.1%
same,remaining binding at 0.001 µM,[5]; 1 nM,94%
same,remaining binding at 0.01 µM,[5]; 10 nM,41%
same,remaining binding at 1 µM,[5]; 1000 nM,0%
same,remaining binding at 0.001 µM,[6]; ABL1(F317I)-phosphorylated,100%
same,remaining binding at 0.01 µM,[6]; ABL1(F317I)-phosphorylated,31%
same,remaining binding at 1 µM,[6]; ABL1(F317I)-phosphorylated,15%
same,remaining binding at 0.001 µM,[6]; ABL1(F317I)-unphosphorylated,83%
same,remaining binding at 0.01 µM,[6]; ABL1(F317I)-unphosphorylated,17%
same,remaining binding at 1 µM,[6]; ABL1(F317I)-unphosphorylated,0.25%
same,remaining binding at 0.001 µM,[7]; 1 nM,65%
same,remaining binding at 0.01 µM,[7]; 10 nM,12%
same,remaining binding at 1 µM,[7]; 1000 nM,0.35%
same,remaining binding at 0.001 µM,[8]; 1 nM,50%
same,remaining binding at 0.01 µM,[8]; 10 nM,7.6%
same,remaining binding at 1 µM,[8]; 1000 nM,0.1%
same,remaining binding at 0.001 µM,[9]; ABL1(F317L)-phosphorylated,55%
same,remaining binding at 0.01 µM,[9]; ABL1(F317L)-phosphorylated,3.7%
same,remaining binding at 1 µM,[9]; ABL1(F317L)-phosphorylated,1.1%
same,remaining binding at 0.001 µM,[9]; ABL1(F317L)-unphosphorylated,49%
same,remaining binding at 0.01 µM,[9]; ABL1(F317L)-unphosphorylated,6.8%
same,remaining binding at 1 µM,[9]; ABL1(F317L)-unphosphorylated,0.25%

# Source: patent US10800741B2 (ANCUREALL PHARMACEUTICAL (SHANGHAI) CO., LTD., priority 2017, dated 2020)
